The assay is described as follows: Binding affinity against [3H]-3-PPP labelled sigma sites.

Results on one compound are retold here after ChEMBL document CHEMBL1127639, “Structural features important for sigma 1 receptor binding” (J Med Chem, 1994).

The structures appear in SMILES notation.

Broadly, the Ki is a dissociation constant, usually derived from enzyme kinetics or from competition with a known ligand. Take `CN(CCc1ccccc1)CCN1CCCC1`: the Ki turned out to be 7.4 nM.
